Data taken from US20060188913A1, “Methods and products for enhancing immune responses using imidazoquinoline compounds” (University of Iowa Research Foundation, priority 2001, published 2006).

What was measured:
Type in all cases: cell-based
hTLR9 [1] = target: T1, hTLR9 (Homo sapiens, UniProt Q9NR96, H530R/Q688R); assay: NF-kappa B luciferase activation in 293T cells transiently transfected with hTLR9; details: hTLR9-transfected 293T cells, positive control for transfection
T1 construct: 293-TLR9-Luc cells contain a genomic copy of the hTLR9 open reading frame and the NF-kappa B-luciferase cassette; expressed in transfected cells; host or cells: 293-TLR9-Luc (stably transfected human embryo kidney 293 cells)
T1 sequence (Q9NR96 26-1032 H530R/Q688R): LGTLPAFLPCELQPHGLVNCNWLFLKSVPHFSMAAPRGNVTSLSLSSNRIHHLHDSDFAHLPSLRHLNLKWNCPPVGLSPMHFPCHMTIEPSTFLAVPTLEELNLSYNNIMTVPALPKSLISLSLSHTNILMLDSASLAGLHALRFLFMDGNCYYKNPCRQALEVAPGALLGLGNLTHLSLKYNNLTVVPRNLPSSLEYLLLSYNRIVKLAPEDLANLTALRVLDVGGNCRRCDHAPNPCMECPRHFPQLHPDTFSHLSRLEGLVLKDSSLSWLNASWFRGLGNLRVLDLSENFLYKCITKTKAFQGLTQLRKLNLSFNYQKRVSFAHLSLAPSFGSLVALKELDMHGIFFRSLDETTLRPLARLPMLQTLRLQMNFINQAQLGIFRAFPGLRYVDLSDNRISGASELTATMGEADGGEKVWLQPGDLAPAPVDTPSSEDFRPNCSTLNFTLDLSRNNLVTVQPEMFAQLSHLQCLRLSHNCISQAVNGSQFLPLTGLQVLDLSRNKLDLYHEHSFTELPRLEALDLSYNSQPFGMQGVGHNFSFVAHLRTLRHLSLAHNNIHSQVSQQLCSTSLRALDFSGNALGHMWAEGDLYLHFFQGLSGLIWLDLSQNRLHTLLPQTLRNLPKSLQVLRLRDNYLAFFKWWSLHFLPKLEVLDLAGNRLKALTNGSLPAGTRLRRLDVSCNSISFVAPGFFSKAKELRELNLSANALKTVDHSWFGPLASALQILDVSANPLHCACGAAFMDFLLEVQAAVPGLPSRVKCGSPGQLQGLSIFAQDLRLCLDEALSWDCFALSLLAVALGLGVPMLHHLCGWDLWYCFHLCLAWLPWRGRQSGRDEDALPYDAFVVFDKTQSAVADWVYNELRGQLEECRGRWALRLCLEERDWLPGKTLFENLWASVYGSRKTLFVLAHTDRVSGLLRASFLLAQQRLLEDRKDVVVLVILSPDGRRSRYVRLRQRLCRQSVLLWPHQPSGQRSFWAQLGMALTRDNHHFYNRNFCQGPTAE
Experimental: (§1) Cells used for transfections were 293T (human embryo kidney cells, T-antigen transfected) or 293-TLR9-Luc (stable transfectants, human embryo kidney cells expressing the human TLR9 receptor and containing a genomic NF-kappa B-luciferase cassette).
Transfections were performed in six-well plates. Cells were plated the day before transfection at 4×10^5/well in DMEM+10% FCS.
Constructs: TLR cDNAs were cloned into pcDNA3.1. NF-kappa B activation was measured by using an 5× NF-kappa B-Luciferase construct (Stratagene). Transfection efficiency was determined by using a beta-galactosidase (beta-gal) reporter construct (p beta-Gal-Control, Clontech).
(§2) Stimulation was performed 24 h after transfection. Medium of the cells was reduced to 1 ml (without medium change) and cells were stimulated with indicated amounts of R-848, LPS, ODN 8954, 2006 and IL-1 beta for 16 h.
(§3) Cell extracts were prepared by lysing the cells in 100 μl reporter lysis buffer using the freeze-thaw method. NF-kappa B stimulation was measured through luciferase activity (Promega). All data were normalized for beta-gal expression. Stimulation indices were calculated in reference to luciferase activity of medium without addition of ODN.
293T cells, stably transfected with a NF-kappa B-luciferase reporter construct, were transiently transfected with plasmids (pcDNA3.1 constructs) coding for full length hTLR2, hTLR7, hTLR8 and hTLR9. […]

hTLR9 [2] = target: T1, hTLR9; assay: NF-kappa B luciferase activation in stably transfected 293-TLR9-Luc cells
Experimental: as §1, §2, §3
Since R-848 has immune modulatory properties, this experiment examined whether R-848-mediated immune responses are hTLR9-dependent. Cells stably transfected with hTLR9 and a NF-kappa B reporter construct (293-TLR-Luc cells) were incubated for 16 hours with IL-1, CpG ODN 2006, control non-CpG ODN 1982 (5′ […] 3′, SEQ ID NO:3), or increasing amounts of R-848. NF-kappa B activation was determined by measurement of luciferase activity. Activity is given in x-fold activation compared to luciferase activity in medium control.

human PBMC = assay: IFN-gamma secretion by human PBMC (ELISA); details: 48 hours, compared to R-848, not shown
Experimental: This experiment investigated the induction of the Th1 cytokine IFN-gamma as well as the Th1-related chemokine IP-10 (IFN-gamma inducible protein). Unfractionated human PBMC from three donors were incubated for 48 hours in the presence of varying concentrations of R-848 (0.01-1.0 μg/ml), varying concentrations of CpG ODN 2006 (0.2-3.0 μg/ml), varying concentrations of negative control ODN 5177 (0.2-3.0 μg/ml), SEB (50 ng/ml), or media alone, and then the concentrations of IP-10 and IFN-gamma in the supernatant were measured by ELISA.

NF-kappa B activation (hTLR9 [1]): 3 fold
NF-kappa B activation (x-fold activation compared to luciferase activity in medium control) (hTLR9 [2]; 293-TLR-Luc cells, 16 hours, 1 to 12 μg/ml): 10- to 30 fold
Substance: CpG ODN 2006
hTLR9-mediated NF-kappa B activation (in words) (hTLR9 [2]; cells expressing hTLR9 alone, 293-TLR-Luc with pcDNA (empty vector)): hTLR9-mediated activation of NF-kappa B by CpG ODN 2006
IFN-gamma induction (human PBMC): The same result was obtained
